# Experimental data: patent EP3381898A1, “SYMMETRICAL TRIS-ARYL-AMIDE DERIVATIVES AND THEIR USE AS ANTI-HEPARANASE” (priority 2017, dated 2018)
# Columns and labels:
# Type in all cases: cell-based, human
# VEGF = test: Real-Time Quantitative PCR of mRNA gene expression in HT1080 cells; settings: 24 h, 2.5 uM, mean value
# Method: (§1) To evaluate the effect of heparanase inhibitors on the tumor transcription of genes encoding for proangiogenic factors, such as FGF1/2, VEGF, MMP-9, HSPE-1, the relative mRNA levels were analyzed by quantitative Real-Time Quantitative PCR.
# (§2) To perform the assay, HT1080 (human fibrosarcoma) cells were cultured in complete medium containing 10%FCS (fetal calf serum). Cells were plated in 24-well plates and treated at fixed concentration (i.e., highest non-toxic concentration) of test compounds. After 24 h, cells were detached, collected and total RNA extracted by RNeasy Mini Kit (QIAGEN). Following reverse transcription step, FGF1/2, VEGF, MMP-9, HSPE-1 mRNA levels, were quantified by qPCR using the advanced Universal SYBR Green Supermix (Bio Rad) and ABI PRISM 7900HT Thermal Cycler System (Perkin Elmer), according to the manufacturer's instructions. Appropriate no-RT and non-template controls were included in each 96-well PCR reaction, and dissociation analysis was performed at the end of each run to confirm the specificity of the reaction. Relative levels of RNA were calculated using the ddCt method. Standard curve and sample data were run in duplicate. In Table 4 a mean value is reported.
# FGF-1 = test: as above; settings: 24 h, 2.5 uM, mean value
# Method: as §1, §2
# FGF-2 = test: as above; settings: 24 h, 2.5 uM, mean value
# Method: as §1, §2
# HPSE-1 = test: as above; settings: 24 h, 2.5 uM, mean value
# Method: as §1, §2
# MMP-9 = test: as above; settings: 24 h, 2.5 uM, mean value
# Method: as §1, §2
# [1] = test system: genes encoding for proangiogenic factors; test: Real-Time Quantitative PCR in HT1080 cells, summary statement for all factors; settings: 2.5 µM, result in words
# Method: as §1
# as §2, with “reported. […]” for “reported.”
substance,measurement,setting,value
"2,2'-{carbonylbis[imino[5-(trifluoromethyl)-3,1-phenylene]carbonylimino(1-methyl-1H-pyrrole-4,2-diyl)carbonylimino-3,1-phenylene(1-oxoethane-2,1-diyl)imino]}diethanoic acid [Compound 12i]",Gene Expression (% mRNA vs. control) VEGF,VEGF,~ 55%
same,Gene Expression (% mRNA vs. control) FGF-1,FGF-1,~ 53%
same,Gene Expression (% mRNA vs. control) FGF-2,FGF-2,~ 82%
same,Gene Expression (% mRNA vs. control) HPSE-1,HPSE-1,~ 63%
same,Gene Expression (% mRNA vs. control) MMP-9,MMP-9,~ 50%
same,inhibition of genes expression encoding for proangiogenic factors,[1],significant inhibition
